Test results: patent US9827292B2, “Use of KGF in the treatment of menopausal disorders” (Università degli Studi di Roma “La Sapienza”, priority 2012, dated 2017)

B1: keratinocyte growth factor (protein, listed as Homo sapiens)
chain: MHKWILTWILPTLLYRSCFHIICLVGTISLACNDMTPEQMATNVNCSSPERHTRSYDYMEGGDIRVRRLFCRTQWYLRIDKRGKVKGTQEMKNNYNIMEIRTVAVGIVAIKGVESEFYLAMNKEGKLYAKKECNEDCNFKELILENHYNTYASAKWTHNGGEMFVALNQKGIPVRGKKTKKEQKTAHFLPMAIT
notes: human recombinant KGF (Upstate Biotechnology)

What was measured:
[1] = test system: KGFR; test: KGFR protein expression by Western blot in MCF-7 cells; type: cell-based, human; settings: E2 20 ng/ml, 24 h, FIG. 3A
Experimental: (§1) The oestrogen receptor α-positive MCF-7 human breast adenocarcinoma cell line, acquired from American Type Culture Collection (no. HTB-22, ATCC-LGC Promochem, Teddington, UK), was cultured in Dulbecco's modified eagle's medium (DMEM; Invitrogen, Karlsruhe, Germany), supplemented with 10% foetal bovine serum (FBS; Invitrogen) and antibiotics. Primary cultures of human oestrogen-sensitive keratinocytes (KCs) were established from 1 cm^2 full-thickness mucosal biopsy of the vaginal vestibule. Following enzymatic dissociation, the keratinocytes were seeded onto culture plates coated with collagen IV (10 mg/ml), as previously reported [Panici et al, 2007], and were maintained in basal medium of the keratinocytes (KBM, Lonza) supplemented with aliquots of KGM (Lonza), with medium change twice a week. […]
(§2) MCF-7 cells untreated or treated with KGF or E2 were lysed in RIPA buffer. […] The bound antibody was detected by enhanced chemiluminescence detection reagents (Pierce Biotechnology, Inc, Rockford, Ill., USA), according to manufacturer's instructions. […] Densitometric analysis was performed using Quantity One Program (Bio-Rad Laboratories srl, Segrate, MI, Italy).

[2] = test system: ER alpha; test: Western blot of ER alpha phosphorylation (Ser118) in MCF-7 cells; type: cell-based, human; settings: 20 ng/ml, FIG. 2D
Experimental: as §1, §2

Molecule | KGFR protein level [1] | phosphorylation of ER alpha (Ser118) [2]
C[C@]12CC[C@@H]3c4ccc(O)cc4CC[C@H]3[C@@H]1CC[C@@H]2O [E2, 17β-oestradiol] | a rise in the protein KGFR | 
B1 |  | able to induce, equally to E2, phosphorylation of ER alpha
